In US8097585B2, “Methods of treating inflammation by administration of heme oxygenase-1 and products of heme degradation” (priority 2002, dated 2012):
Counter-ions that a name gives are not always drawn.

Experiments:
[1] = tested on: B6AF1 splenocytes or purified T cells; experiment: Con A and anti-CD3 mAb mediated proliferation assay; assay type: cell-based, mouse
Experimental: Con A and anti-CD3 mAb mediated proliferation assay. B6AF1 splenocytes or purified T cells were prepared according to the herein-described method and used as responder cells. Responders (2.5×10^5/well) were stimulated with either Con A (1 μg/ml) or anti-CD3 mAb (1 μg/ml) and cultured in a 96 well round bottom plates. Purified T cells (5×10^4/well) were cultured in anti-CD3 mAb (10 μg/ml) coated 96 well flat bottom plates in the presence of anti-CD28 mAb (1 μg/ml). Cells were cultured with or without biliverdin (at various concentrations) for 48 hours at 37° C., 95% air with 5% CO2. They were pulsed with ^3H-thymidine (1 μCi/well) 16 hours before termination of cell culture and ^3H-thymidine incorporation was measured by using a β-counter. These proliferation assays were performed in triplicate and were repeated 3 times.

IL-10 = experiment: Real time RT-PCR of graft muscularis after SITx, IL-10; assay type: in vivo, LEW rats; details: BV treatment, 4 hours
Experimental: Small Intestinal Transplantation. Orthotopic small intestinal transplantation (SITx) was performed in syngeneic Lewis rats. SITx with caval drainage was performed using a previously described procedure (Murase et al., in Handbook of Animal Models in Transplantation Research, Cramer et al., Eds. CRC Press, Boca Raton, Fla., pp. 203-213 (1994)). […] The graft was perfused via the aortic segment with 5 ml chilled Ringer's lactate solution, and the intestinal lumen was irrigated with 20 ml of cold saline solution containing 0.5% neomycin-sulfate (Sigma, St. Louis, Mo.). […]
SYBR green real time RT-PCR. The effects of administration of biliverdin on transplant-induced pro-inflammatory and anti-inflammatory gene expression were assessed in muscularis extracts by RT-PCR Biliverdin ([…], i.p.) was administered to both the donor and recipient three hours preoperatively. […] Equal aliquots (5 μg) of total RNA from each sample were quantified by spectrophotometry (wavelength […]) and aliquoted at a concentration of 40 ng/μl. Peak mRNA expression was quantified in duplicate by SYBR Green two-step, real-time RT-PCR. […] Real-time PCR data were plotted as the ΔRn fluorescence signal versus the cycle number. […] Quantification of mRNA expression was normalized to GAPDH and calculated relative to control using the comparative CT method (Schmittgen et al., J. Biochem. Biophys. Methods 46(1-2):69-8, 2000). […]

[2] = tested on: LPS-induced lung inflammation; experiment: Endotoxic shock (LPS) model, bronchoalveolar lavage; assay type: in vivo, Sprague-Dawley rats; details: BAL 24 hours after LPS
Experimental: Treatment Protocol. Endotoxin (lipopolysaccharide/LPS; Sigma; E. coli serotype 0128:B7; 3 mg/kg, i.v.) was administered to male Sprague-Dawley, resulting in an acute non-lethal inflammation. In rats, a sublethal dose of LPS results in a moderate lung inflammation characterized by neutrophil accumulation and protein accumulation in the airspace, both markers of lung inflammation. The pro-inflammatory cytokine TNF-alpha increases very rapidly in the serum, peaking by 60-90 minutes. This is followed by increases in IL-10, a prototypical anti-inflammatory cytokine that peaks 8-12 hr later.
Administration of Biliverdin. Biliverdin (Frontier Scientific: prepared in PBS following solubilization in NaOH) was administered i.p. at […] 17 hours prior to, one hour prior to, and eight hours after LPS administration.
Bronchoalveolar Lavage. A bronchoalveolar lavage (BAL) was performed 24 hours after LPS administration. Serum cytokines were measured using commercially available ELISA kits (R&D Systems Inc.) per the manufacturer's instructions. Total protein was determined via a standard Bradford assay based on a standard curve. […] Total cell count was determined as well as differential analysis of cell type and morphology via Diff-Quik® Fixative (American Scientific Products) staining of a sample of the lavagate.

IL-6 = experiment: Serum IL-6 (ELISA), SITx with preserved intestine; assay type: in vivo, LEW rats
Experimental: Detection of Serum Mediators. Serum samples from the recipients transplanted with preserved intestine were taken at 3 and 12 hours after reperfusion and stored at […] until evaluation. Serum IL-6 was determined using a rat enzyme-linked immunoassay (ELISA) kits as described by the manufacturer (R & D Systems, Inc., Cambridge, Mass.). To monitor the production of nitric oxide, the stable end products of NO metabolism, serum nitrite/nitrate levels, were measured 12 hours after engraftment using a commercially available test kit (Cayman, Ann Arbor, Mich.). In this assay system, nitrate is reduced to nitrite using nitrate reductase, and the nitrite concentration of the sample is subsequently measured using the Griess reaction.

Question: `C=CC1=C(C)/C(=C/C2=NC(=C\c3[nH]c(/C=C4\NC(=O)C(C)=C4C=C)c(C)c3CCC(=O)O)/C(CCC(=O)O)=C2C)NC1=O` [biliverdin, biliverdin dihydrochloride] was tested. Which “proliferation of purified T cells” value ([1]; anti-CD3 mAb plus anti-CD28 mAb co-stimulation) did it give?
Answer: suppressed

Question: What about the “ConA or anti-CD3 mAb driven T cell proliferation” value ([1]; biliverdin 50 μM) of the same molecule?
Answer: significant suppressive effect

Question: And the “ConA or anti-CD3 mAb driven T cell proliferation” value ([1]; biliverdin 100 μM)?
Answer: significant suppressive effect

Question: What about the “upregulation of IL-10 mRNA caused by transplantation” value (IL-10) of the same molecule?
Answer: did not significantly change

Question: And the “neutrophil accumulation in the airspace” value [2]?
Answer: reduced

Question: And the “protein accumulation in the airspace” value [2]?
Answer: reduced

Question: And the “serum IL-6 protein concentration” value (IL-6; 3 hours after engraftment, untreated transplant 5131.4±3169.1)?
Answer: 1652 ± 306.9 pg/mL

Question: And the “serum IL-6 concentrations” value (IL-6; BV treated controls (no transplant))?
Answer: low
